Source: patent publication US20250243160A1, “INDOLE DERIVATIVES FOR TARGETING AUTOPHAGY” (Automera PTE. LTD, priority 2024, published 2025)

Test system: p62 puncta
Experiment: p62 puncta immunocytochemistry imaging in HeLa cells
Assay type: cell-based
Settings: 24 hours treatment, relative to vehicle control (DMSO)
Procedure: HeLa cells were seeded in coated 96-well plates (10,000 cells) and allowed to adhere overnight. After 24 hours of treatment with either vehicle (DMSO) or test compounds, the media was discarded, and cells were rinsed with ice-cold 1×PBS before fixation by 4% formaldehyde or paraformaldehyde for 20 min. Cells were then washed with 1×PBS and permeabilized with 0.1% Triton X-100 in PBS for 20 min and blocked with Blocking Buffer in PBS for 1 hour. The cells were incubated thereafter for 1 hour with anti-p62 primary antibody in Blocking Buffer, followed by incubation with secondary antibody for 1 hour. DAPI dye was used to visualize nuclei of fixed cells. The blocking buffer used were 5% Fetal Bovine Serum (FBS, ThermoFIsher Scientific, 10270106) and Li-cor Intercept (PBS) Blocking Buffer (Li-cor, 927-70001). The primary antibody used was mouse anti-p62 primary antibody (Novus Biologicals, H00008878-M01). The secondary antibodies used were goat anti-mouse Alexa Fluor Plus 488 secondary antibody (Invitrogen, GOXMS) and goat anti-mouse Alexa Fluor 488 secondary antibody (Invitrogen, A-11029). The DAPI dyes used were DAPI dye (Invitrogen, 62248) and DAPI dye (Invitrogen, D1306).
For the EVOS M7000 System, cells were imaged on the EVOS M7000 microscope using a 20× air objective (Nikon, N.A 0.45). DAPI and p62 channels were illuminated with LED light cubes using integrated hard-coated filter sets for DAPI (357/447 nm) and GFP (470/525 nm) respectively. Images were analysed for p62 puncta count on the Celeste 6.0 software.
For the Operetta CLS System, cells were imaged on the Operetta CLS using a 63× water objective on the DAPI and Alexa 488 channels. Images were analysed for p62 puncta count on the Harmony 5.1 software.
HeLa cells were treated with compounds for 24 hours to evaluate the effect of these compounds on p62 puncta activity. The resulting changes in levels of p62 puncta were assessed by imaging, either on the EVOS M7000 or Operetta CLS systems as described in experimental procedures. The fold change of p62 puncta levels induced by compound treatment relative to vehicle control (DMSO) was determined and summarized in Table 10.

Row | SMILES | p62 puncta (fold change of p62 puncta levels)
1 | CC(C)NCC(O)COc1ccc2c(ccn2Cc2ccccc2)c1 (stereo not drawn) [Compound 39] | ++ (>2-fold change in p62 puncta levels relative to DMSO control)
2 | CNCCOCc1cccc2c1ccn2Cc1ccc(F)cc1 [Compound 77] | ++ (>2-fold change in p62 puncta levels relative to DMSO control)
3 | OCCNCc1ccc(Cl)c2c1ccn2Cc1ccc(F)cc1 [Compound 80] | ++ (>2-fold change in p62 puncta levels relative to DMSO control)
4 | Cc1cn(Cc2ccc(F)cc2)c2cc(F)cc(CNCCO)c12 [Compound 81] | ++ (>2-fold change in p62 puncta levels relative to DMSO control)
5 | O=C(Cn1ccc2c(CNCCO)cc(F)cc21)c1ccc(F)cc1 [Compound 83, 2-(6-fluoro-4-(((2-hydroxyethyl)amino)methyl)-1H-indol-1-yl)-1-(4-fluorophenyl)ethan-1-one] | ++ (>2-fold change in p62 puncta levels relative to DMSO control)
6 | C#CCCOCCOCCNCc1cc(F)cc2c1ccn2Cc1ccc(Cl)cc1 [Compound 86] | ++ (>2-fold change in p62 puncta levels relative to DMSO control)
7 | C#CCCOCCOCCOCCNCc1cc(F)cc2c1ccn2Cc1ccc(Cl)cc1 [Compound 87, 2-(2-(2-(but-3-yn-1-yloxy)ethoxy)ethoxy)-N-((1-(4-chlorobenzyl)-6-fluoro-1H-indol-4-yl)methyl)ethan-1-amine] | ++ (>2-fold change in p62 puncta levels relative to DMSO control)
8 | COC(=O)CCOCCOCCNCc1cc(F)cc2c1ccn2Cc1ccc(Cl)cc1 [Compound 88] | + (<2-fold change in p62 puncta levels relative to DMSO control)
9 | CNCCOCCOCCNCc1cc(F)cc2c1ccn2Cc1ccc(Cl)cc1 [Compound 89] | ++ (>2-fold change in p62 puncta levels relative to DMSO control)
10 | CNCCOCCOCCOCCNCc1cc(F)cc2c1ccn2Cc1ccc(Cl)cc1 [Compound 90] | ++ (>2-fold change in p62 puncta levels relative to DMSO control)
11 | CC(C)(C)OC(=O)N1CCC(OCCOCCNCc2cc(F)cc3c2ccn3Cc2ccc(Cl)cc2)CC1 [Compound 93] | ++ (>2-fold change in p62 puncta levels relative to DMSO control)
12 | Fc1cc(CNCCOCCOCCOCCCOc2ccccc2)c2ccn(Cc3ccc(Cl)cc3)c2c1 [Compound 94] | ++ (>2-fold change in p62 puncta levels relative to DMSO control)
13 | COCCNCc1cc(F)cc2c1ccn2Cc1ccc(Cl)cc1 [Compound 108] | ++ (>2-fold change in p62 puncta levels relative to DMSO control)
14 | OCCNCc1cncc2c1ccn2Cc1ccc(Cl)cc1 [Compound 110, 2-(((1-(4-chlorobenzyl)-1H-pyrrolo[2,3-c]pyridin-4-yl)methyl)amino)ethan-1-ol] | ++ (>2-fold change in p62 puncta levels relative to DMSO control)
15 | OCCNCc1ccnc2c1ccn2Cc1ccc(Cl)cc1 [Compound 111] | + (<2-fold change in p62 puncta levels relative to DMSO control)
16 | OCCNCc1cc2ccn(Cc3ccc(F)cc3)c2cc1F [Compound 112, 2-(((6-fluoro-1-(4-fluorobenzyl)-1H-indol-5-yl)methyl)amino)ethan-1-ol] | ++ (>2-fold change in p62 puncta levels relative to DMSO control)
17 | OCCNCc1cncc2c1ccn2Cc1ccc(F)cc1 [Compound 113] | + (<2-fold change in p62 puncta levels relative to DMSO control)
18 | COC1CN(Cc2cncc3c2ccn3Cc2ccc(F)cc2)C1 [Compound 114] | + (<2-fold change in p62 puncta levels relative to DMSO control)
19 | C#CCCOCCOCCNCC(O)COc1cccc2c1ccn2Cc1ccccc1 (stereo not drawn) [Compound 117] | ++ (>2-fold change in p62 puncta levels relative to DMSO control)
20 | COC(=O)CCOCCNCC(O)COc1cccc2c1ccn2Cc1ccccc1 (stereo not drawn) [Compound 118] | ++ (>2-fold change in p62 puncta levels relative to DMSO control)
21 | C#CCCN1CCC(OCCNCc2cc(F)cc3c2ccn3Cc2ccc(Cl)cc2)CC1 [Compound 119] | ++ (>2-fold change in p62 puncta levels relative to DMSO control)
22 | C#CCCN1CCC(COCCNCc2cc(F)cc3c2ccn3Cc2ccc(Cl)cc2)CC1 [Compound 120] | ++ (>2-fold change in p62 puncta levels relative to DMSO control)
23 | C#CCCN1CCN(CCOCCNCc2cc(F)cc3c2ccn3Cc2ccc(Cl)cc2)CC1 [Compound 121] | ++ (>2-fold change in p62 puncta levels relative to DMSO control)

Row | SMILES | p62 puncta (fold change of p62 puncta levels)
24 | C#CCCOCCOCCOCCNCc1ccc(Cl)c2c1ccn2Cc1ccccc1 [Compound 122] | ++ (>2-fold change in p62 puncta levels relative to DMSO control)
25 | C#CCCOCCOCCOCCNCc1cc(F)cc2c1ccn2Cc1ccc(F)cc1 [Compound 123] | ++ (>2-fold change in p62 puncta levels relative to DMSO control)
26 | C#CCCOCCNCc1cc(F)cc2c1ccn2Cc1ccc(F)cc1 [Compound 125] | + (<2-fold change in p62 puncta levels relative to DMSO control)
27 | C#CCCOCCOCCOCCNCc1cccc2c1ccn2CCc1cccnc1 [Compound 126] | + (<2-fold change in p62 puncta levels relative to DMSO control)
28 | CC(C)(C)OC(=O)NC1CCN(CCOCCNCc2cc(F)cc3c2ccn3Cc2ccc(Cl)cc2)CC1 [Compound 127] | ++ (>2-fold change in p62 puncta levels relative to DMSO control)
29 | CC(C)(C)OC(=O)NCCN1CCN(CCOCCNCc2cc(F)cc3c2ccn3Cc2ccc(Cl)cc2)CC1 [Compound 128] | ++ (>2-fold change in p62 puncta levels relative to DMSO control)
30 | COC1CCN(CCOCCNCc2cc(F)cc3c2ccn3Cc2ccc(Cl)cc2)CC1 [Compound 129] | ++ (>2-fold change in p62 puncta levels relative to DMSO control)
31 | COCCN1CCC(OCCNCc2cc(F)cc3c2ccn3Cc2ccc(Cl)cc2)CC1 [Compound 130] | ++ (>2-fold change in p62 puncta levels relative to DMSO control)
32 | CC(C)(C)OC(=O)NCCOCCNCc1cc(F)cc2c1ccn2Cc1ccc(Cl)cc1 [Compound 133] | ++ (>2-fold change in p62 puncta levels relative to DMSO control)
33 | CC(C)(C)OC(=O)N1CCC(COCCNCc2cc(F)cc3c2ccn3Cc2ccc(Cl)cc2)CC1 [Compound 134] | ++ (>2-fold change in p62 puncta levels relative to DMSO control)
34 | CC(C)(C)OC(=O)NCCOCCOCCNCc1cc(F)cc2c1ccn2Cc1ccc(Cl)cc1 [Compound 135] | ++ (>2-fold change in p62 puncta levels relative to DMSO control)
35 | CC(C)(C)OC(=O)NCCOCCOCCOCCNCc1cc(F)cc2c1ccn2Cc1ccc(Cl)cc1 [Compound 136] | ++ (>2-fold change in p62 puncta levels relative to DMSO control)
36 | C#CCOCCOCCOCCNCc1cc(F)cc2c1ccn2Cc1ccc(Cl)cc1 [Compound 137] | ++ (>2-fold change in p62 puncta levels relative to DMSO control)
37 | CC(C)(C)OC(=O)CCOCCOCCNCc1cc(F)cc2c1ccn2Cc1ccc(Cl)cc1 [Compound 138] | ++ (>2-fold change in p62 puncta levels relative to DMSO control)
38 | CC(C)(C)OC(=O)COCCCOCCNCc1cc(F)cc2c1ccn2Cc1ccc(Cl)cc1 [Compound 139] | + (<2-fold change in p62 puncta levels relative to DMSO control)
39 | C#CCOCCOCCNCc1cc(F)cc2c1ccn2Cc1ccc(Cl)cc1 [Compound 140] | ++ (>2-fold change in p62 puncta levels relative to DMSO control)
40 | CC(C)(C)OC(=O)COCCNCc1cc(F)cc2c1ccn2Cc1ccc(Cl)cc1 [Compound 141] | + (<2-fold change in p62 puncta levels relative to DMSO control)
41 | CC(C)(C)OC(=O)CCOCCNCc1cc(F)cc2c1ccn2Cc1ccc(Cl)cc1 [Compound 142] | + (<2-fold change in p62 puncta levels relative to DMSO control)
42 | C#CCCOCCNCc1cc(F)cc2c1ccn2Cc1ccc(Cl)cc1 [Compound 143] | ++ (>2-fold change in p62 puncta levels relative to DMSO control)
43 | COC(=O)c1ccc(COCCNCc2cc(F)cc3c2ccn3Cc2ccc(Cl)cc2)cc1 [Compound 144] | + (<2-fold change in p62 puncta levels relative to DMSO control)
44 | COC(=O)c1cccc(COCCNCc2cc(F)cc3c2ccn3Cc2ccc(Cl)cc2)c1 [Compound 145] | + (<2-fold change in p62 puncta levels relative to DMSO control)
45 | Fc1cc(CNCCOCCCCl)c2ccn(Cc3ccc(Cl)cc3)c2c1 [Compound 146] | ++ (>2-fold change in p62 puncta levels relative to DMSO control)
